Our source for the melting point and EC50 values is patent US9216960B2, “Spiro[2.4]heptanes for treatment of Flaviviridae infections” (University of Georgia Research Foundation, Inc., priority 2012, dated 2015).

The melting point is the temperature of the solid-liquid transition. In general, EC50 refers to the concentration at which the effect is half-maximal.

Series [1] has as its system hepatitis C virus genotype 1B. The settings on record: Hu7 RNA replicon assay; cited from earlier work.
For series [2], the system named is hepatitis C virus genotype 1A. The settings on record: Hu7 RNA replicon assay; cited from earlier work. A general note: Replicon systems follow genome replication, usually without infectious particles.

Structures are written as SMILES.

Regarding `O=c1ccn([C@H]2[C@H](O)[C@H](O)[C@@H](CO)C23CC3)c(=O)[nH]1`, the melting point was 114 to 116 °C.

`Nc1ncnc2c1ncn2[C@H]1[C@H](O)[C@H](O)[C@@H](CO)C12CC2` [cyclopropy-spirocarbocyclic adenosine, (4R,5S,6R,7R)-4-(6-amino-9H-pur-9-yl)-7-(hydroxymethyl)spiro[2.4]heptane-5,6 diol]: the EC50 in series [1] is 368 nM; in series [2], 273 nM.
